Assay results as given in patent publication US20230357099A1, “PYRAZOLO [3,4-B] PYRIDINE-4-CARBOXAMIDE NITRIFICATION INHIBITOR” (EUROCHEM ANTWERPTEN, priority 2020, published 2023).
Where two headings read alike, the source gives them in different places.

What was measured:
[1] = system: Nitrososphaera viennensis; test: Nitrification inhibition assay on Nitrososphaera viennensis (nitrite, Griess); format: cell-based, Nitrososphaera viennensis EN76T; details: for activity at 2.5 µM: Nitrososphaera viennensis, 2.5 µM compound, structural variants outside formula (I), read-out: Relative nitrification (%) by Nitrososphaera viennensis treated with 2.5 µM compound
Experimental: Nitrite (NO2—) was measured using the Griess reagent (Product number: G4410, Griess reagent (modified), Sigma-Aldrich). Equal volumes of the sample or a diluted sample and the Griess reagent were mixed a transparent flat bottom multi-well plate and incubated in the dark at room temperature for 10 minutes. Absorbance values at 540 nm were measured spectrophotometrically (EnVision, Perkin Elmer®) and used to calculate the [NO2—] by use of a standard curve.
A liquid culture sample of Nitrososphaera viennensis EN76T was kindly supplied by prof. dr. Christa Schleper (University of Vienna). Cells were grown in fresh water medium (FWM) as described earlier by Tourna et al. (2011). All necessary materials were rinsed with 1 % HCl and washed at least 3 times with MilliQ water. FWM (pH 7.5 (KOH)) contained 17 mM NaCl, 3 mM MgCl2 × 2 H2O, 680 µM CaCl2 × 2 H2O, 1.47 mM KH2PO4 and 6.71 mM KCI. After autoclaving, successively 1 mL non-chelated trace element mixture (101 mM HCl, 488 µM H3BO3, 508 µM MnCl2 × 4 H2O, 803 µM CoCl2 × 6 H2O, 101 µM NiCl2 × 6 H2O, 12 µM CuCl2 × 2 H2O, 503 µM ZnSO4 × 7 H2O and 150 µM Na2MoO4 × 2 H2O), 1 mL Fe-NaEDTA (7.5 mM), 1 mL vitamin solution (20 mg/L biotin, 20 mg/L folic acid, 100 mg/L pyridoxine-HCl, 50 mg/L thiamine-HCl, 50 mg/L riboflavin, 50 mg/L nicotinic acid, 50 mg/L DL-pantothenic acid, 50 mg/L P-aminobenzoic acid, 2 g/L choline chloride and 10 mg/L vitamin B12), 2 mL NaHCO3 (1 M), 2 mL kanamycin (100 mg/mL), 2 mL carbenicillin (100 mg/mL), 3 mL NH4Cl (1 M), 10 mL HEPES buffer (1 M, pH 7.6) and 1 mL Na-pyruvate (0.1 M) were added aseptically. All stock-solutions were filter-sterilized, except the autoclaved non-chelated trace element mixture. Cultures were incubated aerobically at 42° C. without shaking in sterile 250-mL Erlenmeyer flasks or 30-mL cultivation tubes (Product number: 216-1290, Quickstart universal containers STERILIN®, VWR) filled with either 100 or 20 mL FWM and sealed with tape (Micropore™ Surgical Tape 1530-1, 3M™). Late-log phase cultures ([NO2-] ≥ 1 mM) were subcultivated by dilution (1:400) in fresh FWM.
7-day old 100 mL cultures grown in 250-mL Erlenmeyer flasks with a [NO2-] ≥ 1 mM were 5 times overconcentrated in fresh FWM by centrifugation (4000 rpm, 15 min, 5° C.) in 50 mL centrifuge tubes (Cat. No. 430829, CentriStar™ Conical Centrifuge Tubes, Corning®). Per batch, all the cultures were pooled in one sterile Schott bottle. Subsequently, 200 µl/well was dispensed at low pipetting speed in transparent flat bottom 96-well plates (Cat. No. 353072, Falcon® 96 Well Clear Microplate, Corning®) using 150 µl wide-bore tips (two steps of 100 µl) on a Tecan robot (Freedom EVO®, Tecan). 0.5 µl of 99.99 % DMSO (negative control - final concentration 0.25%) and 0.5 µl of 0.04 M PTIO (2-phenyl-4,4,5,5-tetramethylimidazoline-1-oxyl 3-oxide, positive control - final concentration 100 µM) were added manually to the first and last column respectively. Finally, 0.5 µl of candidate nitrification inhibitors (1 mM stock solutions in 99.99% DMSO - final concentration 2.5 µM) were added to the central wells using a pin tool on a Tecan robot (Freedom EVO®, Tecan). In between additions, the pins were washed in sequence with 99.5% DMSO, MilliQ water and 100% ethanol and air-dried. All plates were sealed with tape (Micropore™ Surgical Tape 1530-1, 3M™), stacked per 4 on top of a 96-well plate filled with 100 µl MilliQ per well and covered with aluminum foil. Position effects of the stacks within the incubator were considered. Plates were incubated at 42° C. without shaking. 24 h later, NO2— was measured spectrophotometrically at 540 nm (EnVision, Perkin Elmer®). […]

[2] = system: ABIL (ammonia-binding liquid inoculum), nitrifying microbial enrichment containing both AOA and AOB; test: Nitrification inhibition assay on ABIL (ammonium consumption); format: cell-based; details: for activity at 10 µM: 10 µM compound
[3] = structural variants outside formula (I), read-out: Relative nitrification (%) by ABIL treated with 10 µM compound

| Compound | activity at 2.5 µM [1] [%] | activity at 10 µM [2, 3] [%] | also measured |
| --- | --- | --- | --- |
| O=S1(=O)CCCN1c1cccc(NCc2cccc3cn[nH]c23)c1 [Example 106] | 100 | 94 | – |
| COC(C)(C)c1noc(Cc2n[nH]c3ccccc23)n1 [Example 125] | 97 | 100 | – |
| CCN(CC1CCOC1)C(=O)c1cc2cnn(C(C)C)c2nc1C (centres unmarked) [Example 41] | 100 | 98 | – |
| N#Cc1nn(CN2CCSCC2)c2ccc(Cl)cc12 [Example 96] | 96 | 85 | – |
| O=C(NCCc1ccccc1)c1n[nH]c2ccccc12 [Example 98] | 100 | 89 | – |
| Cc1nn(C)c2nc(C(C)C)cc(C(=O)N(C)c3nc4ccccc4s3)c12 [Example 3] | – | – | N. viennensis - relative nitrification (%) at 0.5 µM ([1]; 0.5 µM compound, 0% = as strong as 100 µM PTIO, 100% = no inhibition): 49%; N. viennensis - relative nitrification (%) at 5 µM ([1]; 5 µM compound, 0% = as strong as 100 µM PTIO, 100% = no inhibition): 0%; N. viennensis - relative nitrification (%) at 25 µM ([1]; 25 µM compound, 0% = as strong as 100 µM PTIO, 100% = no inhibition): 0%; ABIL - relative nitrification (%) at 2 µM ([2]; 2 µM compound, 0% = as strong as 100 µM PTIO, 100% = no inhibition): -30%; activity at 10 µM ([2]; 24 h, 24 h, 0% = as strong as 100 µM PTIO, 100% = no inhibition, read-out: ABIL - relative nitrification (%) at 10 µM): -41% |
| c1cc(CNCCc2nc(C3CC3)cs2)c2[nH]ncc2c1 [Example 130] | 94 | 100 | – |
| Cc1nc2c(c(C)nn2C)c(C)c1CCC(=O)NCC1CCCO1 (centres unmarked) [Example 80] | 100 | 100 | – |
| c1csc(Cn2ncc3ccc(-c4ccc5c(c4)OCO5)nc32)c1 [Example 25] | 100 | 91 | – |
| Cc1nc2c(cnn2C(C)C)c(C)c1CCC(=O)N1CCSCC1 [Example 26] | 100 | 92 | – |
| CC(C)n1ncc2cc(NC(=O)CN(C)S(=O)(=O)c3cccs3)cnc21 [Example 88] | 94 | 100 | – |
| Cc1nnc(NC(=O)c2cnc3c(cnn3C(C)C)c2)s1 [Example 55] | 100 | 100 | – |
| CC(C)n1ncc2cc(NC(=O)CCC3CCCO3)cnc21 (centres unmarked) [Example 35] | 98 | 96 | – |
| CC(NC(=O)C1(NC(=O)c2ccc3[nH]ncc3c2)CCCC1)C1CC1 (centres unmarked) [Example 138] | 100 | 100 | – |
| CC(C)n1ncc2cc(C(=O)Nc3ccnn3Cc3ccc(Cl)cc3Cl)cnc21 [Example 84] | 100 | 100 | – |
| O=S(=O)(Nc1ccc2cn[nH]c2c1)c1cccc2ccccc12 [Example 161] | 100 | 100 | – |
| Cc1nc2c(c(C)nn2C)c(C)c1CCC(=O)N1CCOCC1 [Example 60] | 100 | 100 | – |
| CC(=O)NC(CC(=O)Nc1cnc2c(cnn2C(C)C)c1)c1ccc(Cl)cc1 (centres unmarked) [Example 23] | 100 | 91 | – |
| CN(C(=O)Nc1ccc2c(cnn2C(F)F)c1)C1CCSC1 (centres unmarked) [Example 159] | 91 | 100 | – |

| Compound | activity at 2.5 µM [1] [%] | activity at 10 µM [2, 3] [%] | also measured |
| --- | --- | --- | --- |
| O=C(NC1=NCCS1)c1n[nH]c2ccccc12 [Example 111] | 95 | 98 | – |
| CC(C)n1ncc2ccc(NC(=O)NC3CCN(C)C3=O)cc21 (centres unmarked) [Example 140] | 100 | 100 | – |
| O=C(NCCCCc1ccccc1)c1n[nH]c2ccccc12 [Example 146] | 96 | 100 | – |
| O=C(Nc1cccc2cn[nH]c12)c1csc(-c2ccccc2)n1 [Example 131] | 100 | 100 | – |
| CCC(CC)C(CNC(=O)c1n[nH]c2ccccc12)N1CCOCC1 (centres unmarked) [Example 127] | 100 | 100 | – |
| CNC(=O)C1(C(=O)Nc2cnc3c(cnn3C(C)C)c2)CC1 [Example 69] | 100 | 100 | – |
| Cc1nc2c(cnn2C(C)C)cc1C(=O)N1CCSCC1 [Example 78] | 100 | 100 | – |
| Cc1cc(-c2nc(-c3ccc4c(c3)OCO4)no2)c2c(C)nn(C)c2n1 [Example 66] | 99 | 100 | – |
| O=C(Nc1cccc(/C=C/c2ccccn2)c1)c1n[nH]c2ccccc12 [Example 145] | 96 | 100 | – |
| Cc1nc2cc(NC(=O)c3cnc4c(cnn4C(C)C)c3)ccc2o1 [Example 44] | 100 | 99 | – |
| CC(C)n1ncc2cc(C(=O)NCc3ccccc3OC(F)(F)F)cnc21 [Example 42] | 98 | 98 | – |
| CC1(C)N([O])C(c2ccccc2)=[N+]([O-])C1(C)C [PTIO, 2-phenyl-4,4,5,5-tetramethylimidazoline-1-oxyl 3-oxide] | – | – | inhibition in the N. viennensis assay ([1]; PTIO at 25 µM): does not show inhibition anymore; inhibition in the ABIL assay ([2]; PTIO at 33 µM): does not show inhibition anymore |
| Cc1nc2c(cnn2C(C)C)cc1C(=O)NC(C)C1CC1 (centres unmarked) [Example 31] | 99 | 93 | – |
| CCNC(=O)c1cccc(NC(=O)c2n[nH]c3ccccc23)c1 [Example 122] | 95 | 100 | – |
| CC(C)n1ncc2cc(NC(=O)CCC(=O)c3ccccc3)cnc21 [Example 68] | 100 | 100 | – |
| Cc1sc2nc(CN3CCCC3)nc(Nc3ccc4cn[nH]c4c3)c2c1C [Example 95] | 96 | 97 | – |
| CC(C)n1ncc2cc(C(=O)NCc3ccccc3S(=O)(=O)N3CCCCC3)cnc21 [Example 81] | 100 | 100 | – |
| CC(C)n1ncc2cc(NC(=O)N3CCN(S(=O)(=O)N4CCCCCC4)CC3)cnc21 [Example 83] | 100 | 100 | – |
